In patent US20160376240A1, “6 Phenyl or 6 Pyridin 3 YL Indazole Derivatives and Methods of Use” (ABBVIE INC., priority 2014, published 2016):

Target: T1, TrkA (Homo sapiens, UniProt P04629)
T1 construct: purchased Invitrogen PV3144
Experiment: TrkA kinase inhibition, HTRF assay
Type: biochemical
Conditions: LCK peptide substrate 125 nM, TrkA 2-10 nM pre-incubated with ATP 200 μM
Method: TrkA, TrkB, and TrkC enzymes were obtained from Invitrogen (as catalog numbers PV3144, PV3616, and PV3617, respectively). The ability of a compound to inhibit the enzymatic activity of the TrkA, TrkB, and TrkC enzymes was determined in separate assays. Enzyme activity was measured in an HTRF® (homogeneous time resolved fluorescence) assay, which detects enzymatic phosphorylation of a biotinylated synthetic peptide substrate (an LCK peptide analog, biotin-ahx-GAEEEIYAAFFA, from Genemed Synthesis). Phosphorylation is assessed by HTRF® in the presence of an anti-phosphotyrosine antibody conjugated to Eu^3+ cryptate (Cisbio) as donor fluorophore, and streptavidin conjugated to allophycocyanin (ProZyme) as acceptor fluorophore. The HTRF® signal was detected at two different wavelengths (620 nm and 665 nm) which were used to calculate the fluorescence ratio.
Each enzyme was titrated to a concentration optimized to ensure accurate measurement of the initial reaction rate. To allow the Trk enzymes to undergo activation and auto-phosphorylation, a 20 minute pre-incubation with ATP was carried out (at twice the final targeted enzyme and ATP concentration) prior to addition of test compound and the peptide substrate.
TrkA in vitro assays were performed by pre-incubating TrkA (2-10 nM) with ATP (200 μM) for 20 minutes at ambient temperature in 50 mM HEPES pH 7.4, 10 mM MgCl2, 2 mM MnCl2, 100 μM Na3VO4, 1 mM dithiothreitol, 0.01% BSA (bovine serum albumin). Then, to the activated Trk enzyme mixture was added the test compound in 2% dimethyl sulfoxide. After 10 minutes, the peptide substrate (125 nM) was added. After 1 hour, enzyme reactions were terminated by addition of equal reaction volumes of detection/stop reagent (containing 0.2 μg/mL anti-phosphotyrosine monoclonal antibody labeled with europium from Cisbio (catalog# PT66-K), and 4 μg/mL PhycoLink® Streptavidin-Allophycocyanin conjugate from ProZyme (catalog# PJ25S) in 60 mM EDTA in 40 mM HEPES pH 7.4, 480 mM KF, 0.01% Tween® 20 and 0.1% BSA bovine serum albumin) Reaction plates were stored at 4° C. overnight before reading the fluorescence ratio signal on a PerkinElmer EnVision™ fluorescence detector. Individual reaction wells were stopped at time points to obtain reaction rates. The test inhibitor compounds were assayed in duplicate, at half-log serial dilutions over a range of concentrations (e.g. starting at 50 μM or 5 μM as the high compound concentration). The percent Trk enzyme inhibition was calculated from the initial rates of the inhibited reactions relative to the uninhibited control. IC50 values were calculated by fitting the inhibition percent to the concentration of inhibitor [I] in the assay in equation 1 below, to solve for the IC50.
Inhibition %=100[I]/([I]+[IC50]) equation 1

T1 sequence (P04629 33-796): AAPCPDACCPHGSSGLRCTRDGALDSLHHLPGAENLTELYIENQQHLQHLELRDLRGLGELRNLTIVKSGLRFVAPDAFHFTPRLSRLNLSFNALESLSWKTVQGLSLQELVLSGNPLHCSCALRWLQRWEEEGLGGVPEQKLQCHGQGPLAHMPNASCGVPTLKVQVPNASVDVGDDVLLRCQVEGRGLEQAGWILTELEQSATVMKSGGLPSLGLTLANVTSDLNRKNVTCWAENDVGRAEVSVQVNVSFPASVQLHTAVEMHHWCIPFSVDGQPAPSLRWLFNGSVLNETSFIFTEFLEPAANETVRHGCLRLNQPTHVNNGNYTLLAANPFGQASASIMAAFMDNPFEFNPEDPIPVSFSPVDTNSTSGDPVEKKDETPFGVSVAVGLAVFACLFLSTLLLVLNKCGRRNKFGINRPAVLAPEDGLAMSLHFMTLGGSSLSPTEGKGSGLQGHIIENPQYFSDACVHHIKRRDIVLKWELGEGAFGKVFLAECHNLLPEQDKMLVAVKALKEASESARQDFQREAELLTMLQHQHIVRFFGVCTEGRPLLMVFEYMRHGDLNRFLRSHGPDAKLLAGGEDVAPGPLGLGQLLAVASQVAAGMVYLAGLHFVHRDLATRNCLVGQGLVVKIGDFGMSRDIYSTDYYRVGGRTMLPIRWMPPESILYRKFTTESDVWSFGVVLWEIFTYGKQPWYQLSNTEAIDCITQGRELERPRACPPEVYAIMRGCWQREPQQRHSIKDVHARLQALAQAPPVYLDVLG

Structure (SMILES) | IC50 [nM]
CNC(=O)c1ccc(-c2cc(O[C@@H](C)C(F)(F)F)c3c(N)n[nH]c3c2)cc1N1CCN(c2ccccc2)CC1 [Example 39, 4-(3-amino-4-{[(2S)-1,1,1-trifluoropropan-2-yl]oxy}-1H-indazol-6-yl)-N-methyl-2-(4-phenylpiperazin-1-yl)benzamide] | 41.7
CC(=O)N1CCN(c2cc(-c3cc(OC(C)C(F)(F)F)c4c(N)n[nH]c4c3)ccc2C(N)=O)CC1 (centres unmarked) [Example 96, 2-(4-acetylpiperazin-1-yl)-4-{3-amino-4-[(1,1,1-trifluoropropan-2-yl)oxy]-1H-indazol-6-yl}benzamide] | 89.2
CC(=O)Nc1ccc(-c2cc(OC3CCOCC3)c3c(C)n[nH]c3c2)cc1N1CCN(Cc2cccnc2)CC1 [Example 148, N-{4-[3-methyl-4-(tetrahydro-2H-pyran-4-yloxy)-1H-indazol-6-yl]-2-[4-(pyridin-3-ylmethyl)piperazin-1-yl]phenyl}acetamide] | 34.6
NC(=O)c1ccc(-c2ccc3c(N)n[nH]c3c2)cc1N1CCN(CCN2CCOCC2)CC1 [Example 89, 4-(3-amino-1H-indazol-6-yl)-2-{4-[2-(morpholin-4-yl)ethyl]piperazin-1-yl}benzamide] | 13500
NC(=O)c1ccc(-c2ccc3c(N)n[nH]c3c2)cc1N1CCN(c2cccnc2)CC1 [Example 90, 4-(3-amino-1H-indazol-6-yl)-2-[4-(pyridin-3-yl)piperazin-1-yl]benzamide] | 227
CC(=O)c1ccc(-c2cc(OC3CCOCC3)c3c(N)n[nH]c3c2)cc1N1CCN(c2ccccc2)CC1 [Example 13, 1-{4-[3-amino-4-(tetrahydro-2H-pyran-4-yloxy)-1H-indazol-6-yl]-2-(4-phenylpiperazin-1-yl)phenyl}ethanone] | 62.9
CNC(=O)c1ccc(-c2cc(O[C@H](C)C(F)(F)F)c3c(N)n[nH]c3c2)cc1N1CCN(C2CCCC2)CC1 [Example 53, 4-(3-amino-4-{[(2R)-1,1,1-trifluoropropan-2-yl]oxy}-1H-indazol-6-yl)-2-(4-cyclopentylpiperazin-1-yl)-N-methylbenzamide] | 44.4
CCc1n[nH]c2cc(-c3ccc(C(=O)NC)c(N4CCN(C(=O)OC(C)(C)C)CC4)c3)cc(OC3CCOCC3)c12 [Example 158, tert-butyl 4-{5-[3-ethyl-4-(tetrahydro-2H-pyran-4-yloxy)-1H-indazol-6-yl]-2-(methylcarbamoyl)phenyl}piperazine-1-carboxylate] | 317
CC(=O)N1CCC(Oc2cc(-c3ccc(C(N)=O)c(N4CCN(c5ccccc5)CC4)c3)cc3[nH]nc(N)c23)CC1 [Example 64, 4-{4-[(1-acetylpiperidin-4-yl)oxy]-3-amino-1H-indazol-6-yl}-2-(4-phenylpiperazin-1-yl)benzamide] | 8.45
Nc1n[nH]c2cc(-c3ccc(C(=O)NC4CC4)c(N4CCN(c5cccnc5)CC4)c3)cc(OC3CCOCC3)c12 [Example 24, 4-[3-amino-4-(tetrahydro-2H-pyran-4-yloxy)-1H-indazol-6-yl]-N-cyclopropyl-2-[4-(pyridin-3-yl)piperazin-1-yl]benzamide] | 20.4
CN1CCC(N2CCN(c3cc(-c4cc(OC5CCOCC5)c5c(N)n[nH]c5c4)ccc3C(N)=O)CC2)CC1 [Example 9, 4-[3-amino-4-(tetrahydro-2H-pyran-4-yloxy)-1H-indazol-6-yl]-2-[4-(1-methylpiperidin-4-yl)piperazin-1-yl]benzamide] | 3460
CC(=O)Nc1ccc(-c2cc(OC3CCOCC3)c3c(C)n[nH]c3c2)cc1N1CCN(Cc2cccc(F)c2)CC1 [Example 149, N-{2-[4-(3-fluorobenzyl)piperazin-1-yl]-4-[3-methyl-4-(tetrahydro-2H-pyran-4-yloxy)-1H-indazol-6-yl]phenyl}acetamide] | 25
CC(=O)c1ccc(-c2cc(OC3CCOCC3)c3c(N)n[nH]c3c2)cc1N1CCN(C2CCCCC2)CC1 [Example 19, 1-{4-[3-amino-4-(tetrahydro-2H-pyran-4-yloxy)-1H-indazol-6-yl]-2-(4-cyclohexylpiperazin-1-yl)phenyl}ethanone] | 38.1
CNC(=O)c1ccc(-c2cc(OC3CCOCC3)c3c(N)n[nH]c3c2)cc1N1CCN(C(=O)OC(C)C)CC1 [Example 114, isopropyl 4-{5-[3-amino-4-(tetrahydro-2H-pyran-4-yloxy)-1H-indazol-6-yl]-2-(methylcarbamoyl)phenyl}piperazine-1-carboxylate] | 80.8
CC(=O)Nc1ccc(-c2cc(OC3CCOCC3)c3c(C)n[nH]c3c2)cc1N1CCN(C(=O)C2CCC2)CC1 [Example 144, N-{2-[4-(cyclobutylcarbonyl)piperazin-1-yl]-4-[3-methyl-4-(tetrahydro-2H-pyran-4-yloxy)-1H-indazol-6-yl]phenyl}acetamide] | 25.4
CC(Oc1cc(-c2ccc(C(N)=O)c(N3CCN(C(=O)C(C)(C)C)CC3)c2)cc2[nH]nc(N)c12)C(F)(F)F (centres unmarked) [Example 104, 4-{3-amino-4-[(1,1,1-trifluoropropan-2-yl)oxy]-1H-indazol-6-yl}-2-[4-(2,2-dimethylpropanoyl)piperazin-1-yl]benzamide] | 14
CC(=O)Nc1ccc(-c2cc(OC3CCOCC3)c3c(C)n[nH]c3c2)cc1N1CCN(C(=O)NC(C)C)CC1 [Example 151, 4-{2-acetamido-5-[3-methyl-4-(tetrahydro-2H-pyran-4-yloxy)-1H-indazol-6-yl]phenyl}-N-isopropylpiperazine-1-carboxamide] | 166
Cc1n[nH]c2cc(-c3ccc(C(N)=O)cc3)cc(OC3CCOCC3)c12 [Example 132, 4-[3-methyl-4-(tetrahydro-2H-pyran-4-yloxy)-1H-indazol-6-yl]benzamide] | 34.1
CC(=O)Nc1ccc(-c2cc(OC3CCOCC3)c3c(C)n[nH]c3c2)cc1N1CCN(C(=O)OC(C)(C)C)CC1 [Example 141, tert-butyl 4-{2-acetamido-5-[3-methyl-4-(tetrahydro-2H-pyran-4-yloxy)-1H-indazol-6-yl]phenyl}piperazine-1-carboxylate] | 3.77
CNC(=O)c1ccc(-c2cc(O[C@@H](C)C(F)(F)F)c3c(N)n[nH]c3c2)cc1N1CCN(C(=O)C(C)(C)C)CC1 [Example 45, 4-(3-amino-4-{[(2S)-1,1,1-trifluoropropan-2-yl]oxy}-1H-indazol-6-yl)-2-[4-(2,2-dimethylpropanoyl)piperazin-1-yl]-N-methylbenzamide] | 300
CNC(=O)c1ccc(-c2cc(OC3CCOCC3)c3c(C)n[nH]c3c2)cc1N1CCN(C(=O)C2CC2)CC1 [Example 124, 2-[4-(cyclopropylcarbonyl)piperazin-1-yl]-N-methyl-4-[3-methyl-4-(tetrahydro-2H-pyran-4-yloxy)-1H-indazol-6-yl]benzamide] | 19.2
CNC(=O)c1ccc(-c2cc(OC(C)C(F)(F)F)c3c(N)n[nH]c3c2)cc1N1CCN(CCN2CCOCC2)CC1 (centres unmarked) [Example 37, 4-{3-amino-4-[(1,1,1-trifluoropropan-2-yl)oxy]-1H-indazol-6-yl}-N-methyl-2-{4-[2-(morpholin-4-yl)ethyl]piperazin-1-yl}benzamide] | 667
CC(Oc1cc(-c2ccc(C(N)=O)c(N3CCN(c4ccncc4)CC3)c2)cc2[nH]nc(N)c12)C(F)(F)F (centres unmarked) [Example 98, 4-{3-amino-4-[(1,1,1-trifluoropropan-2-yl)oxy]-1H-indazol-6-yl}-2-[4-(pyridin-4-yl)piperazin-1-yl]benzamide] | 539
CNC(=O)c1ccc(-c2cc(OC3CCOCC3)c3c(N)n[nH]c3c2)cc1N1CCN(CC2CC2(F)F)CC1 (centres unmarked) [Example 173, 4-[3-amino-4-(tetrahydro-2H-pyran-4-yloxy)-1H-indazol-6-yl]-2-{4-[(2,2-difluorocyclopropyl)methyl]piperazin-1-yl}-N-methylbenzamide] | 16.4
NC(=O)c1ccc(-c2ccc3c(N)n[nH]c3c2)cc1N1CCN(Cc2ccccc2)CC1 [Example 87, 4-(3-amino-1H-indazol-6-yl)-2-(4-benzylpiperazin-1-yl)benzamide] | 43.3
NC(=O)c1ccc(-c2cc(OC3CCOCC3)c3c(N)n[nH]c3c2)cc1N1CCN(CCN2CCOCC2)CC1 [Example 5, 4-[3-amino-4-(tetrahydro-2H-pyran-4-yloxy)-1H-indazol-6-yl]-2-{4-[2-(morpholin-4-yl)ethyl]piperazin-1-yl}benzamide] | 37
